# Results taken from US20240122214A1, “COMPOSITIONS, METHOD OF MAKING AND METHOD OF USE THEREOF” (EPC NATURAL PRODUCTS CO., LTD, priority 2014, published 2024).
# Like-named read-outs stand apart in the source and are kept apart here.
# What was measured:
# [1] = system: glucose transport across the Caco-2 cell monolayer; experiment: Glucose transport assay in Caco-2 trans-well model (Example 2); assay type: cell-based, Human; conditions: 0-3 h, result in words
# [2] = system: Caco-2 cell layers; experiment: Caco-2 barrier integrity: TEER and xylitol passage (Example 2); assay type: cell-based, Human; conditions: 1 g/L xylitol reference
# [3] = system: glucose transport across the Caco-2 cell monolayer; experiment: Glucose transport assay in Caco-2 trans-well model (Example 1); assay type: cell-based; conditions: Homo sapiens, 13.5 g/L glucose apical, phloretin 100 mg/L, read-out: Glucose transport compared to untreated control [% of control]
# [4] = depends on the tested concentration compared with sucrose; cited from earlier work
xylitol permeability of treated cell layers [2],Compound,inhibitory effect on glucose transport [1],activity at 100 µg/mL ([3]; 0.5 h) [%],activity at 100 µg/mL ([3]; 1.0 h) [%],times sweeter than sucrose [4]
highest,"O=C(CCc1ccc(O)cc1)c1c(O)cc(O)cc1O [Phloretin, phloretin]",strongly reduced glucose absorption,36,54,
,O=S(=O)([O-])NC1CCCCC1.[Na+] [sodium cyclamate],,,,about 30 times
,OC[C@H]1O[C@H](O[C@]2(CCl)O[C@H](CCl)[C@@H](O)[C@@H]2O)[C@H](O)[C@@H](O)[C@H]1Cl [sucralose],,,,about 600 times
,thaumatin,,,,about 2000 times
